US20240342195A1, “AGENT FOR COMBINATION USE COMPRISING T CELL AND/OR B CELL ACTIVITY REGULATOR” (TOKAI UNIVERSITY EDUCATIONAL SYSTEM, priority 2021, published 2024)
Entries after “also recorded” stand apart in the source; their conditions may differ.

Tests used:
[1] = tested on: Human peripheral blood mononuclear cells (PBMCs); experiment: number of cells of TSST-1-stimulated PBMCs cultured with P4 or COR; assay type: cell-based; settings: PBMCs + TSST-1; 3 days; high concentration
Experimental: (§1) The PBMCs (final concentration: 1×10^6/mL) were cultured for 3 days at 37° C. in 5% CO2 in 10% FCS-containing RPMI 1640 to which P4 or COR was added in various concentrations with stimulation by 1 μg/mL of toxic shock syndrome toxin-1 (TSST-1). These cells were collected, washed with PBS, and dispensed into a Fisher tube in an amount of 1×10^6 cells/tube. For analysis of a human cell surface marker, a fluorescent-labeled anti-human monoclonal antibody (mAbs) was used. The cells were stained with the mAbs, a reaction was performed for 15 minutes at 4° C., and the resultant was washed with PBS containing 1% (w/v) BSA. Then, the resultant was analyzed by FACS Fortessa, or FACS Verse (BD Bioscience, Franklin Lakes, NJ). In the analysis, a leukocyte gated or lymphocyte gated cells were further gated by expression of human CD45, and then the analysis was performed. A culture supernatant was collected, and 25 μL thereof was dispensed to quantitatively determine cytokine with Legend Plex™ kit from BioLegend.

[2] = tested on: Human peripheral blood mononuclear cells (PBMCs); experiment: cytokine production in PBMCs activated in the presence of P4; assay type: cell-based; settings: 0 to 200 μM; PBMCs + TSST-1; 3 days
Experimental: as §1

B cell in PBMCs [3] = experiment: restimulation experiment (transient vs continuous P4/COR), PD-L1 on B cells; assay type: cell-based, human; settings: TSST-1 3 days
Experimental: (§2) In a restimulation experiment, PBMCs were cultured for 6 hours at 37° C. in 5% CO2 in 10% FCS-containing RPMI 1640 to which 200 μM P4 or COR was added. These cells were washed, adjusted to a final concentration of 1×10^6/mL, and cultured again in the presence or absence of 200 μM P4 or COR with stimulation by 1 μM TSST-1. After 72 hours, the resultant cells were collected to be analyzed by FCM.

[4] = tested on: Hu-PBMC-NOG (GVHD onset model); experiment: GVHD onset model: human PBMCs transplanted to NOG mouse, P4 or COR administered subcutaneously; assay type: in vivo; settings: 4 weeks
Experimental: In the analysis using the GVHD model, PBMCs prepared in the same manner as described above were washed with PBS, and 2.5×10^6 PBMCs were intravenously transplanted to each 8- to 9-week-old NOG mouse. […] At the same time as the administration, the weight was measured. After 4 weeks, the mouse was anesthetized to collect heart blood, and euthanized. From various lymphoid organs excised, human cells were prepared, hemolyzed, and then subjected to FCM. Besides, the lung and the liver were excised, and immunohistochemically stained as follows. A tissue of the mouse was immobilized with 20% formalin (Wako Pure Chemical Industries, Ltd.), and embedded in paraffin. The obtained paraffin block was sliced, and the resultant was subjected to deparaffinization, mounted on a slide glass, and stained with hematoxylin and eosin (HE). In immunohistochemical staining with an anti-human CD45 antibody, the slide was subjected to a heat treatment at 97° C. for 20 minutes, and subjected to an endogenous peroxidase treatment through a reaction with 0.3% H2O2/MetOH at room temperature for 10 minutes. Thereafter, the resultant was blocked with 1% goat serum, and anti-human CD45 (Dako) was added thereto, followed by a reaction overnight at 4° C. The resultant slide was washed 3 times with 0.01 M PBS for 5 minutes, and colored with a DAB solution. The resultant was washed with running water for 3 minutes, and stained with hematoxylin, followed by dehydration and penetration/encapsulation.

B cell in PBMCs [5] = experiment: FCM analysis of PD-1 on B cells of TSST-1-stimulated PBMCs; assay type: cell-based, human; settings: TSST-1 and P4/COR stimulation; data not shown
Experimental: as §1

BeWo = experiment: proliferating ability of cell line cultured with P4 or COR; assay type: cell-based, human; settings: 200 μM, cultured 10 days
Experimental: (§3) Each of human choriocarcinoma cell line JEG-3, BeWo, and embryonic kidney cell line HEK293 was cultured for 10 days at 37° C. in 5% CO2 in a 10% Fetal Calf Serum (FCS)-containing DMEM (Gibuco) to which water-soluble progesterone (P4; water soluble) (Sigma) or cortisol (COR) (Sigma) was added in various concentrations. Each of mouse myeloma cell line P3-X63-Ag8-U1 (P3X) and mouse lymphoma cell line A20 was cultured for 3 days at 37° C. in 5% CO2 in 10% FCS-containing RPMI 1640 to which P4 or COR was added in various concentrations. Proliferation of the cells was evaluated by measuring the number of the cells.

JEG-3 = experiment: as above; assay type: cell-based, human; settings: 200 μM, cultured 10 days
Experimental: as §3

HEK293 = experiment: as above; assay type: cell-based, human; settings: 200 μM, cultured 10 days
Experimental: as §3

[6] = tested on: CD4 and CD8 T cells in PBMCs; experiment: restimulation experiment (transient vs continuous P4/COR), PD-1/PD-L1 on T cells; assay type: cell-based, human; settings: CD4 and CD8 T cells, TSST-1 3 days
Experimental: as §2

P3-X63-Ag8-U1 (P3X) = experiment: proliferating ability of cell line cultured with P4 or COR; assay type: cell-based, mouse; settings: cultured 3 days
Experimental: as §3

A20 = experiment: as above; assay type: cell-based, mouse; settings: cultured 3 days
Experimental: as §3

PBMC-NOG-hIL-4-Tg mouse = experiment: transplantation of P4/COR-cultured PBMCs to NOG-hIL-4-Tg mouse immunized with CH401MAP; assay type: in vivo
[7] = tested on: T cell (CD3 gated) in human PBMCs; experiment: atezolizumab addition experiment, PD-L1/PD-1 expression on T cell by FCM; assay type: cell-based; settings: 0 to 200 μM; TSST-1; 3 days
Experimental: (§4) As for an experiment of atezolizumab addition, 0 to 200 μM P4 or COR, 1 μM TSST-1, and 100 μg/mL atezolizumab were added to PBMCs, and the resultant was cultured for 72 hours at 37° C. in 5% CO2, followed by analysis by FCM.

[8] = tested on: CD4 and CD8 T cells in PBMCs; experiment: FCM analysis of activation/exhaustion markers (CD25, PD-1) on T cells of TSST-1-stimulated PBMCs; assay type: cell-based, human; settings: day 3
Experimental: as §1

[9] = tested on: B cell (CD19 gated) in human PBMCs; experiment: atezolizumab addition experiment, PD-L1/PD-1 expression on B cell by FCM; assay type: cell-based; settings: TSST-1, 3 days
Experimental: as §4

[10] = 2 mg/head subcutaneously twice a week

CC(=O)[C@H]1CC[C@H]2[C@@H]3CCC4=CC(=O)CC[C@]4(C)[C@H]3CC[C@]12C [P4, progesterone]
proliferation (number of cells) [1]: suppressed | cytokine production in culture supernatant (10 cytokines of FIG. 4) [2]: suppression of cytokine production was observed depending on the P4 concentration | PD-L1 expression in B cell (B cell in PBMCs [3]; continuous administration, 200 μM): suppressed PD-L1 expression | PD-L1 expression in B cell (B cell in PBMCs [3]; transient addition (200 μM 6 hours, washed)): tended to maintain the expression; also recorded: tended to rather increase PD-L1 expression | CD8 T cells [4, 10]: tend to increase | GVHD symptoms [4, 10]: remarkably relieved | number of spleen cells vs control [4, 10]: rather increased | weight loss by GVHD [4, 10]: only slightly caused at an initial stage | lymphocyte infiltration into a peripheral tissue such as the lung ([4]; anti-human CD45 immunohistochemical staining, 2 mg/head subcutaneously twice a week): tended to be suppressed | CD62L expression in vivo ([4]; continuously administered to humanized NOG mouse of GVHD onset model): maintained CD62L expression in vivo for a long period of 4 weeks | PD-1 expression on B cell (B cell in PBMCs [5]): not increased | cell proliferating ability (BeWo): little proliferated | cell proliferating ability (JEG-3): little proliferated | cell proliferating ability (HEK293): little proliferated | ratio of later-phase activated (PD-1/PD-L1-positive) cells ([6]; continuously added, 200 μM): remarkably reduced | activation (PD-1/PD-L1-positive cells) vs control group ([6]; transiently added (200 μM 6 hours, washed)): substantially equivalent to or greater than that of a control group | proliferation (P3-X63-Ag8-U1 (P3X); 20 μM or less): proliferation suppression was not observed | proliferation (P3-X63-Ag8-U1 (P3X); high concentration of 200 μm): proliferation suppression was observed | proliferation (A20; 20 μM or less): proliferation suppression was not observed | proliferation (A20; high concentration of 200 μm): proliferation suppression was observed | engraftment ability of transplanted PBMCs (PBMC-NOG-hIL-4-Tg mouse; PBMCs cultured with 200 μM for 6 hours before transplantation, analysis after 4 weeks): equivalent to that of a control group | specific antibody production (CH401MAP) (PBMC-NOG-hIL-4-Tg mouse; PBMCs cultured with 200 μM for 6 hours before transplantation, plasma after 4 weeks): maintained | expression of CD62L in human cells engrafted into the spleen (PBMC-NOG-hIL-4-Tg mouse; treated PBMCs transplanted to NOG-hIL-4-Tg, 4 weeks): increased as compared with that in a CTRL mouse | PD-1 expression in a T cell [7]: reduction in PD-1 expression dependent on P4 concentration | PD-L1 expression in a T cell [7]: reduced | activation marker-negative (non-activated) T cells ([8]; 20 to 200 μM): increased depending on the P4 concentration | later-phase activated (CD25-positive PD-1-positive) T cells ([8]; CD4 and CD8 T cells, 200 μM): minimally detected | ratio of later-phase activated (CD25-positive PD-1-positive) T cells ([8]; CD4 and CD8 T cells, 20 to 200 μM): reduced dependent on the P4 concentration | PD-L1 expression in a B cell ([9]; 0 to 200 μM): showed PD-L1 expression | PD-L1 expression in a B cell ([9]; 20 μM): high
